Tests used:
FjDusD = target: T1, FjDusD (Flavobacterium johnsoniae, UniProt A5FBI4); assay: isothermal titration calorimetry; format: binding; details: 10 mM HEPES-NaOH pH 7.0, 25 °C; one-site model (n = 1)
T1 construct: gene Fjoh_4433; signal peptide evaluated by SignalP
T1 sequence (A5FBI4 22-494): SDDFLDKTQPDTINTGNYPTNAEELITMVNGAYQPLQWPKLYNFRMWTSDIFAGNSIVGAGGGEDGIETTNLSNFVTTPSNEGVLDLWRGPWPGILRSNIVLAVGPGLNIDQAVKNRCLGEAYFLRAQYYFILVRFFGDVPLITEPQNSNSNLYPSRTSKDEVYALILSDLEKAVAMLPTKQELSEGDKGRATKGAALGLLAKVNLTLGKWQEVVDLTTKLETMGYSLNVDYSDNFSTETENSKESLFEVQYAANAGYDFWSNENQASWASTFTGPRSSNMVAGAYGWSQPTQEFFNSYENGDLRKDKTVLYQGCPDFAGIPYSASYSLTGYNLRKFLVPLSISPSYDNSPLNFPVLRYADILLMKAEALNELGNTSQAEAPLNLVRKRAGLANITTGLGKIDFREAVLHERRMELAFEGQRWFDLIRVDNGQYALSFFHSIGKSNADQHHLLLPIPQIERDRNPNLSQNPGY
From the text: isothermal titration calorimetry on FjDusD

FjGH66 = target: T2, FjGH66 (Flavobacterium johnsoniae, UniProt A5FBI2); assay: X-ray crystal structure, […] Å; format: binding
T2 construct: gene Fjoh_4431; domains 41-126, 127-464, 485-586
T2 sequence (A5FBI2 34-586): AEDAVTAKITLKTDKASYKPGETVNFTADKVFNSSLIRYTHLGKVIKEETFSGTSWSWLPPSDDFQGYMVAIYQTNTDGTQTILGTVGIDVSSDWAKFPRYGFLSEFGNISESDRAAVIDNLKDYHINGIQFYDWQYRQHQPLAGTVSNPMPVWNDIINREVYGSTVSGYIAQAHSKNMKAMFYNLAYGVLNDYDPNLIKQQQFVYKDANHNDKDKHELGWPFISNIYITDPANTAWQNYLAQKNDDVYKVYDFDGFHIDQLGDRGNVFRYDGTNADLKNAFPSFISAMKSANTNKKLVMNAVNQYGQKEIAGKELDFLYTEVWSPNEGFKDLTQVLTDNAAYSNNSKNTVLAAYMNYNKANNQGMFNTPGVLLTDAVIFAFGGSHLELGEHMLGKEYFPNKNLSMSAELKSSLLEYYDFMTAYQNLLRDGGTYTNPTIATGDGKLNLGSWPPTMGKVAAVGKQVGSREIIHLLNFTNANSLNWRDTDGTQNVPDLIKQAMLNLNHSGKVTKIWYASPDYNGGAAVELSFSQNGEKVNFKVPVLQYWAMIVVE

Row | SMILES | Kd (FjDusD) | also measured
1 | OC[C@H]1O[C@H](OC[C@H]2O[C@H](OC[C@H]3O[C@H](OC[C@H]4O[C@H](OC[C@H]5O[C@H](OC[C@H]6OC(O)[C@H](O)[C@@H](O)[C@@H]6O)[C@H](O)[C@@H](O)[C@@H]5O)[C@H](O)[C@@H](O)[C@@H]4O)[C@H](O)[C@@H](O)[C@@H]3O)[C@H](O)[C@@H](O)[C@@H]2O)[C@H](O)[C@@H](O)[C@@H]1O (stereo partly drawn) [Isomaltohexaose] | 467 ± 156 µM | 
2 | OC[C@H]1O[C@H](OC[C@H]2OC(O)[C@H](O)[C@@H](O)[C@@H]2O)[C@H](O)[C@@H](O)[C@@H]1O (stereo partly drawn) [Isomaltose] |  | X-ray crystal structure, 1.80 Å (FjGH66; crystal soaked with 10 mM IG2): complexes with glucose, IG2, or IG3 were determined
3 | OC[C@H]1O[C@H](OC[C@H]2O[C@H](OC[C@H]3O[C@H](OC[C@H]4O[C@H](OC[C@H]5OC(O)[C@H](O)[C@@H](O)[C@@H]5O)[C@H](O)[C@@H](O)[C@@H]4O)[C@H](O)[C@@H](O)[C@@H]3O)[C@H](O)[C@@H](O)[C@@H]2O)[C@H](O)[C@@H](O)[C@@H]1O (stereo partly drawn) [Isomaltopentaose] | 226 ± 29 µM | 
4 | OC[C@H]1O[C@H](OC[C@H]2O[C@H](OC[C@H]3OC(O)[C@H](O)[C@@H](O)[C@@H]3O)[C@H](O)[C@@H](O)[C@@H]2O)[C@H](O)[C@@H](O)[C@@H]1O (stereo partly drawn) [Isomaltotriose] | 621 ± 23 µM | 
5 | OC[C@H]1OC(O)[C@H](O)[C@@H](O)[C@@H]1O (stereo partly drawn) [glucose] |  | X-ray crystal structure, 1.80 Å (FjGH66; crystal soaked with 10 mM glucose): complexes with glucose, IG2, or IG3 were determined
6 | OC[C@H]1O[C@H](OC[C@H]2O[C@H](OC[C@H]3O[C@H](OC[C@H]4OC(O)[C@H](O)[C@@H](O)[C@@H]4O)[C@H](O)[C@@H](O)[C@@H]3O)[C@H](O)[C@@H](O)[C@@H]2O)[C@H](O)[C@@H](O)[C@@H]1O (stereo partly drawn) [Isomaltotetraose] | 326 ± 14 µM | 

From article PMC10316084, “Bacteroidota polysaccharide utilization system for branched dextran exopolysaccharides from lactic acid bacteria” (The Journal of Biological Chemistry, 2023)
